Measured values as given in ChEMBL document CHEMBL6182895, “Synthesis, in vitro and in vivo evaluation, and computational modeling analysis of thioxothiazolidine derivatives as highly potent and selective α-amylase inhibitors” (Eur J Med Chem, 2025).
The source made the active and inactive calls. No cut-off for these calls is given here.

How the values were obtained:
[1] = Inhibition of alpha-amylase (unknown origin); parameters: species or system Homo sapiens
[2] = species: Homo sapiens; test: Inhibition of alpha-amylase (unknown origin) using starch as substrate preincubated for 10 mins followed by substrate addition and measured after 10 mins relative to control; parameters: concentration or dose not given beside the values; conditions: time 20.0 min
[3] = species: Homo sapiens; test: Inhibition of alpha-glucosidase (unknown origin) using p-NPG as substrate preincubated for 5 mins followed by substrate addition and measured after 30 mins relative to control; parameters: concentration or dose not given beside the values; conditions: time 35.0 min
[4] = Inhibition of alpha-amylase (unknown origin) using starch as substrate preincubated for 10 mins followed by substrate addition and measured after 10 mins; parameters: species or system Homo sapiens
[5] = species: Homo sapiens; test: Potency index, ratio of acarbose IC50 to test compound IC50 for inhibition of alpha-amylase (unknown origin) using starch as substrate preincubated for 10 mins followed by substrate addition and measured after 10 mins; conditions: time 20.0 min
[6] = Inhibition of alpha-amylase (unknown origin) using starch as substrate measured after 30 mins; parameters: species or system Homo sapiens
[7] = Inhibition of porcine pancreatic alpha-amylase using starch as substrate preincubated for 10 mins followed by substrate addition and measured after 5 mins; parameters: species or system Sus scrofa
[8] = Inhibition of porcine pancreatic alpha-amylase using starch as substrate preincubated for 10 mins followed by substrate addition and measured after 30 mins; parameters: species or system Sus scrofa
[9] = species: Homo sapiens; test: Mixed type of inhibition of alpha-amylase (unknown origin) assessed as change in Km and Vmax of substrate using starch as substrate and measured after 10 mins by Lineweaver-burk plot analysis
[10] = tested on: Rattus norvegicus; test: Antidiabetic activity against streptozotocin-induced diabetic Wistar rat model assessed as blood glucose level at 50 mg/kg, po and measured on day 1 (reference value: 324.7 +/-6.24 mg/dl); assay type: functional; conditions: time 1 day
[11] = tested on: Rattus norvegicus; test: Antidiabetic activity against streptozotocin-induced diabetic Wistar rat model assessed as blood glucose level at 50 mg/kg, po and measured on day 7 (reference value: 378.8 +/-6.48 mg/dl); assay type: functional; conditions: time 7 day
[12] = tested on: Rattus norvegicus; test: Antidiabetic activity against streptozotocin-induced diabetic Wistar rat model assessed as blood glucose level at 50 mg/kg, po and measured on day 14 (reference value: 388.3 +/-6.34 mg/dl); assay type: functional; conditions: time 14 day
[13] = tested on: Rattus norvegicus; test: Antidiabetic activity against streptozotocin-induced diabetic Wistar rat model assessed as restoration of metabolic homeostasis by measuring serum urea level at 50 mg/kg, po measured on day 1 to 14 (reference value: 124.68 +/-2.16 mg/dl); assay type: functional; conditions: time 1-14 day
[14] = tested on: Rattus norvegicus; test: Antidiabetic activity against streptozotocin-induced diabetic Wistar rat model assessed as restoration of metabolic homeostasis by measuring serum creatinine level at 50 mg/kg, po measured on day 1 to 14 (reference value: 116.81 +/-9.26 uM); assay type: functional; conditions: time 1-14 day
[15] = tested on: Rattus norvegicus; test: Antidiabetic activity against streptozotocin-induced diabetic Wistar rat model assessed as restoration of metabolic homeostasis by measuring decrease in […] level in serum at 50 mg/kg, po measured on day 1 to 14; assay type: functional, organism-based; conditions: time 1-14 day
[16] = tested on: Rattus norvegicus; test: Antidiabetic activity against streptozotocin-induced diabetic Wistar rat model assessed as restoration of metabolic homeostasis by measuring AST level in serum at 50 mg/kg, po measured on day 1 to 14 (reference value: 133.49 +/-2.52 IU/L); assay type: functional; conditions: time 1-14 day
[17] = tested on: Rattus norvegicus; test: Antidiabetic activity against streptozotocin-induced diabetic Wistar rat model assessed as restoration of metabolic homeostasis by measuring ALT level in serum at 50 mg/kg, po measured on day 1 to 14 (reference value: 35.2 +/-1.58 IU/L); assay type: functional; conditions: time 1-14 day
[18] = tested on: Rattus norvegicus; test: Antidiabetic activity against streptozotocin-induced diabetic Wistar rat model assessed as restoration of metabolic homeostasis by measuring ALP level in serum at 50 mg/kg, po measured on day 1 to 14 (reference value: 195.13 +/-1.08 IU/L); assay type: functional; conditions: time 1-14 day
[19] = tested on: Rattus norvegicus; test: Protection against diabetes-induced organ dysfunction in streptozotocin-induced diabetic Wistar rat model assessed as reduction in liver damage by measuring fewer congestive blood vessels, reduced hepatocyte ballooning with fewer lipid droplets at 50 mg/kg, po and measured on day 14 by Hematoxylin-Eosin staining based analysis; assay type: functional, organism-based; conditions: time 14.0 day
[20] = tested on: Rattus norvegicus; test: Protection against diabetes-induced organ dysfunction in streptozotocin-induced diabetic Wistar rat model assessed as reduction in kidney damage by measuring kidney with less severe retraction and swelling with measurable hemorrhages in renal tubules and glomeruli at 50 mg/kg, po and measured on day 14 by Hematoxylin-Eosin staining based analysis; assay type: functional, organism-based; conditions: time 14.0 day
[21] = tested on: Rattus norvegicus; test: Protection against diabetes-induced organ dysfunction in streptozotocin-induced diabetic Wistar rat model assessed as reduction in pancreas damage by measuring visible improvement in islet structure with noticeable signs of atrophy remained at 50 mg/kg, po and measured on day 14 by Hematoxylin-Eosin staining based analysis; assay type: functional, organism-based; conditions: time 14.0 day

| Structure (SMILES) | inhibition [2] [%] | inhibition [3] [%] | further results |
| --- | --- | --- | --- |
| Oc1ccc(-c2nnc(CSc3nc4ccccc4[nH]3)o2)c(O)c1 |  |  | IC50 [1]: 6.2 µM |
| Cn1ccnc1/C=C1\SC(=S)N(CC(=O)Nc2cccnn2)C1=O | 27.4 | 9.47 |  |
| O=C(Cc1c[nH]c2ccccc12)NNS(=O)(=O)c1ccccc1F |  |  | IC50 [1]: 1.8 µM |
| O=C(CN1C(=O)/C(=C/c2nccs2)SC1=S)NC12CC3CC(CC(C3)C1)C2 | 42.1 | 5.67 |  |
| O=C(CN1C(=O)/C(=C/c2csc3ccccc23)SC1=S)Nc1ccc(C(F)(F)F)cc1 | 73.5 | 4.59 | IC50 [4]: 14 µM; Ratio IC50 [5]: 68 |
| O=C(CN1C(=O)/C(=C/c2csc3ccccc23)SC1=S)NC12CC3CC(CC(C3)C1)C2 | 32.5 | 6.53 |  |
| O=C(CN1C(=O)/C(=C/c2nccs2)SC1=S)Nc1c(F)cc(Br)cc1Cl | 47.1 | 5.14 | IC50 [4]: 45.1 µM; Ratio IC50 [5]: 21 |
| O=C(CN1C(=O)/C(=C/c2csc3ccccc23)SC1=S)Nc1c(F)cc(Br)cc1Cl | 68.2 | 10.2 | IC50 [4]: 154 µM |
| COc1ccc(C2C(C#N)=C(NC(C)=O)Oc3oc4ccccc4c(=O)c32)cc1 (centres undefined) |  |  | IC50 [6]: 0.00204 µM |
| C[C@H]1O[C@H](O[C@H]2[C@H](O)[C@@H](O)[C@@H](O[C@H]3[C@H](O)[C@@H](O)C(O)O[C@@H]3CO)O[C@@H]2CO)[C@H](O)[C@@H](O)[C@@H]1N[C@H]1C=C(CO)[C@@H](O)[C@H](O)[C@H]1O (some centres undefined) [ACARBOSE] | 81.2 | 76.4 | IC50 [1]: 1.06 µM; IC50 [6]: 0.0125 µM; IC50 [7]: 1.56 µM; IC50 [8]: 104 µM; IC50 [4]: 951 µM; inhibition [9]: Active; Activity [10]: 315.8 mg/dL; Activity [11]: 170.6 mg/dL; Activity [12]: 119.7 mg/dL; Activity [13]: 55.28 mg/dL; Activity [14]: 80.21 µM; Activity [15]: Active; Activity [16]: 48.87 IU/L; Activity [17]: 12.14 IU/L; Activity [18]: 145.34 IU/L; Activity [19]: Active; Activity [20]: Active; Activity [21]: Active |
| O=C(CN1C(=O)/C(=C/c2nc3ccccc3s2)SC1=S)Nc1c(F)cc(F)cc1Br | 40.1 | 6.16 |  |
| O=C(CN1C(=O)/C(=C/c2csc3ccccc23)SC1=S)Nc1ccc(Br)cc1F | 14.7 | 4.31 |  |
| CC(C)CNC(=O)CN1C(=O)/C(=C/c2nccn2C)SC1=S | 23.3 | 4.88 |  |
| O=C(CN1C(=O)/C(=C/c2nc3ccccc3s2)SC1=S)Nc1ccc(C(F)(F)F)cc1 | 61.7 | 3.78 | IC50 [4]: 4.07 µM; Ratio IC50 [5]: 234 |
| Cn1ccnc1/C=C1\SC(=S)N(CC(=O)Nc2ccc(Br)cc2F)C1=O | 10.2 | 8.36 |  |
| COc1ccc(C(=O)NC(=O)NC2CC2)cc1 |  |  | IC50 [1]: 1.57 µM |
| Cn1ccnc1/C=C1\SC(=S)N(CC(=O)Nc2c(F)cc(Br)cc2Cl)C1=O | 38.2 | 8.25 |  |
| O=C(CN1C(=O)/C(=C/c2nccs2)SC1=S)Nc1ccc(Br)cc1F | 22.6 | 9.25 |  |
| O=C(CN1C(=O)/C(=C/c2nccs2)SC1=S)Nc1c(F)cc(F)cc1Br | 42.8 | 4.85 |  |
